Reference: US10294202B2, “Pyrrolidinones as herbicides” (FMC Corporation, priority 2013, dated 2019)

How the values were obtained:
corn = assay: Test A pre-/postemergence herbicide test; assay type: in vivo, Zea mays; details: for Corn plant response rating: Preemergence, visual rating on 0 to 100 scale (0 no effect, 100 complete control)
Summary of the method: (§1)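 Approximately 10 days after treatment in the greenhouse, plants were compared with untreated controls and given a 0–100 visual injury rating. Applications: preemergence directed soil spray; postemergence on 2–10 cm plants at the one- to two-leaf stage.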

giant foxtail = assay: Test A pre-/postemergence herbicide test; assay type: in vivo, Setaria faberii; details: for Foxtail, Giant plant response rating: Preemergence, visual rating on 0 to 100 scale (0 no effect, 100 complete control)
Summary of the method: as §1

barnyardgrass [1] = assay: Test B flooded paddy test; assay type: in vivo, Echinochloa crus-galli; details: 250 g ai/ha, Flood; scale of 0 to 100 where 0 is no effect and 100 is complete control
Experimental: (§2) Plant species in the flooded paddy test selected from rice (Oryza sativa), sedge, umbrella (small-flower umbrella sedge, Cyperus difformis), ducksalad (Heteranthera limosa), and barnyardgrass (Echinochloa crus-galli) were grown to the 2-leaf stage for testing. At time of treatment, test pots were flooded to 3 cm above the soil surface, treated by application of test compounds directly to the paddy water, and then maintained at that water depth for the duration of the test. Treated plants and controls were maintained in a greenhouse for 13 to 15 days, after which time all species were compared to controls and visually evaluated. Plant response ratings, summarized in Table B, are based on a scale of 0 to 100 where 0 is no effect and 100 is complete control. A dash (-) response means no test result.

ducksalad = assay: Test B flooded paddy test; assay type: in vivo, Heteranthera limosa; details: 250 g ai/ha, Flood; scale of 0 to 100 where 0 is no effect and 100 is complete control
Experimental: as §2

barnyardgrass [2] = assay: Test A pre-/postemergence herbicide test; assay type: in vivo, Echinochloa crus-galli; details: for Barnyardgrass plant response rating: Preemergence, visual rating on 0 to 100 scale (0 no effect, 100 complete control)
Summary of the method: as §1

sedge, umbrella = assay: Test B flooded paddy test; assay type: in vivo, Cyperus difformis; details: 250 g ai/ha, Flood; scale of 0 to 100 where 0 is no effect and 100 is complete control
Experimental: as §2

morningglory = assay: Test A pre-/postemergence herbicide test; assay type: in vivo, Ipomoea spp.; details: for Morningglory plant response rating: Preemergence, visual rating on 0 to 100 scale (0 no effect, 100 complete control)
Summary of the method: as §1

pigweed = assay: Test A pre-/postemergence herbicide test; assay type: in vivo, Amaranthus retroflexus; details: for Pigweed plant response rating: Preemergence, visual rating on 0 to 100 scale (0 no effect, 100 complete control)
Summary of the method: as §1

velvetleaf = assay: Test A pre-/postemergence herbicide test; assay type: in vivo, Abutilon theophrasti; details: for Velvetleaf plant response rating: Preemergence, visual rating on 0 to 100 scale (0 no effect, 100 complete control)
Summary of the method: as §1

crabgrass, large = assay: Test A pre-/postemergence herbicide test; assay type: in vivo, Digitaria sanguinalis; details: for Crabgrass, Large plant response rating: Preemergence, visual rating on 0 to 100 scale (0 no effect, 100 complete control)
Summary of the method: as §1

rice = assay: Test B flooded paddy test; assay type: in vivo, Oryza sativa; details: 250 g ai/ha, Flood; scale of 0 to 100 where 0 is no effect and 100 is complete control
Experimental: as §2

wheat = assay: Test A pre-/postemergence herbicide test; assay type: in vivo, Triticum aestivum; details: for Wheat plant response rating: Preemergence, visual rating on 0 to 100 scale (0 no effect, 100 complete control)
Summary of the method: as §1

[3] = Postemergence, 125 g ai/ha, 0 to 100 scale, 0 no effect, 100 complete control
[4] = Postemergence, 500 g ai/ha, 0 to 100 scale (0 no effect, 100 complete control)
[5] = preemergence, 500 g ai/ha, 0 to 100 scale
[6] = preemergence, 500 g ai/ha, 0 to 100 scale (0 no effect, 100 complete control)

Row | SMILES | Plant response rating, Corn (corn; [3]) | Plant response rating, Corn (corn; [4]) | Corn plant response rating (corn; 125 g ai/ha) | Plant response rating, Corn (corn; [5]) | Plant response rating, Foxtail, Giant (giant foxtail; [3]) | Plant response rating, Foxtail, Giant (giant foxtail; [4]) | Foxtail, Giant plant response rating (giant foxtail; 125 g ai/ha) | Plant response rating, Foxtail, Giant (giant foxtail; [5]) | Plant response rating, Barnyardgrass (barnyardgrass [1]) | Plant response rating, Ducksalad (ducksalad) | Plant response rating, Barnyardgrass (barnyardgrass [2]; [3]) | Plant response rating, Barnyardgrass (barnyardgrass [2]; [4]) | Barnyardgrass plant response rating (barnyardgrass [2]; 125 g ai/ha) | Plant response rating, Barnyardgrass (barnyardgrass [2]; [6]) | Plant response rating, Sedge, Umbrella (sedge, umbrella) | Plant response rating, Morningglory (morningglory; [3]) | Plant response rating, Morningglory (morningglory; [4]) | Morningglory plant response rating (morningglory; 125 g ai/ha) | Plant response rating, Morningglory (morningglory; [5]) | Plant response rating, Pigweed (pigweed; [3]) | further results
1 | O=C1NCC(c2ccc(Cl)c(Cl)c2)C1C(=O)Nc1ccccc1OC(F)(F)F (racemic) [Compound 32] | 0 | 0 | 0 | 0 | 0 | 40 | 70 | 80 | 0 | 50 | 0 | 0 | 0 | 0 | 0 | 0 | 0 | 0 | 0 | 0 | Plant response rating, Pigweed (pigweed; [4]): 0; Pigweed plant response rating (pigweed; 125 g ai/ha): 0; Plant response rating, Pigweed (pigweed; [5]): 0; Plant response rating, Velvetleaf (velvetleaf; [3]): 0; Plant response rating, Velvetleaf (velvetleaf; [4]): 0; Velvetleaf plant response rating (velvetleaf; 125 g ai/ha): 0; Plant response rating, Velvetleaf (velvetleaf; [5]): 0; Plant response rating, Crabgrass, Large (crabgrass, large; [3]): 0; Plant response rating, Crabgrass, Large (crabgrass, large; [4]): 30; Crabgrass, Large plant response rating (crabgrass, large; 125 g ai/ha): 80; Plant response rating, Crabgrass, Large (crabgrass, large; [5]): 80; Plant response rating, Rice (rice): 0; Plant response rating, Wheat (wheat; [3]): 0; Plant response rating, Wheat (wheat; [4]): 0; Wheat plant response rating (wheat; 125 g ai/ha): 0; Plant response rating, Wheat (wheat; [5]): 0
2 | COc1cccc(C2CNC(=O)C2C(=O)Nc2ccccc2F)c1 (racemic) [Compound 36] | 0 | 0 | 0 | 0 | 0 | 20 | 20 | 70 | 0 | 60 | 0 | 80 | 40 | 80 | 40 | 0 | 0 | 0 | 0 | 0 | Plant response rating, Pigweed (pigweed; [4]): 0; Pigweed plant response rating (pigweed; 125 g ai/ha): 0; Plant response rating, Pigweed (pigweed; [5]): 0; Plant response rating, Velvetleaf (velvetleaf; [3]): 0; Plant response rating, Velvetleaf (velvetleaf; [4]): 0; Velvetleaf plant response rating (velvetleaf; 125 g ai/ha): 0; Plant response rating, Velvetleaf (velvetleaf; [5]): 0; Plant response rating, Crabgrass, Large (crabgrass, large; [3]): 0; Plant response rating, Crabgrass, Large (crabgrass, large; [4]): 20; Crabgrass, Large plant response rating (crabgrass, large; 125 g ai/ha): 20; Plant response rating, Crabgrass, Large (crabgrass, large; [5]): 80; Plant response rating, Rice (rice): 0; Plant response rating, Wheat (wheat; [3]): 0; Plant response rating, Wheat (wheat; [4]): 0; Wheat plant response rating (wheat; 125 g ai/ha): 0; Plant response rating, Wheat (wheat; [5]): 20
3 | Cc1cccc(C2CNC(=O)C2C(=O)Nc2ccccc2F)c1 (racemic) [Compound 38] | 0 | 0 | 0 | 0 | 0 | 20 | 0 | 30 | 0 | 0 | 0 | 30 | 0 | 80 | 0 | 0 | 0 | 0 | 0 | 0 | Plant response rating, Pigweed (pigweed; [4]): 0; Pigweed plant response rating (pigweed; 125 g ai/ha): 0; Plant response rating, Pigweed (pigweed; [5]): 0; Plant response rating, Velvetleaf (velvetleaf; [3]): 0; Plant response rating, Velvetleaf (velvetleaf; [4]): 0; Velvetleaf plant response rating (velvetleaf; 125 g ai/ha): 0; Plant response rating, Velvetleaf (velvetleaf; [5]): 0; Plant response rating, Crabgrass, Large (crabgrass, large; [3]): 0; Plant response rating, Crabgrass, Large (crabgrass, large; [4]): 50; Crabgrass, Large plant response rating (crabgrass, large; 125 g ai/ha): 70; Plant response rating, Crabgrass, Large (crabgrass, large; [5]): 80; Plant response rating, Rice (rice): 0; Plant response rating, Wheat (wheat; [3]): 0; Plant response rating, Wheat (wheat; [4]): 0; Wheat plant response rating (wheat; 125 g ai/ha): 0; Plant response rating, Wheat (wheat; [5]): 0
4 | N#Cc1cccc(C2CNC(=O)C2C(=O)Nc2ccccc2F)c1 (racemic) [Compound 72] | 0 | 0 | 0 | 0 | 10 | 50 | 60 | 80 | 0 | 60 | 20 | 60 | 0 | 50 | 0 | 0 | 10 | 0 | 0 | 0 | Plant response rating, Pigweed (pigweed; [4]): 0; Pigweed plant response rating (pigweed; 125 g ai/ha): 0; Plant response rating, Pigweed (pigweed; [5]): 0; Plant response rating, Velvetleaf (velvetleaf; [3]): 0; Plant response rating, Velvetleaf (velvetleaf; [4]): 0; Velvetleaf plant response rating (velvetleaf; 125 g ai/ha): 0; Plant response rating, Velvetleaf (velvetleaf; [5]): 0; Plant response rating, Crabgrass, Large (crabgrass, large; [3]): 30; Plant response rating, Crabgrass, Large (crabgrass, large; [4]): 70; Crabgrass, Large plant response rating (crabgrass, large; 125 g ai/ha): 80; Plant response rating, Crabgrass, Large (crabgrass, large; [5]): 90; Plant response rating, Rice (rice): 0; Plant response rating, Wheat (wheat; [3]): 0; Plant response rating, Wheat (wheat; [4]): 0; Wheat plant response rating (wheat; 125 g ai/ha): 0; Plant response rating, Wheat (wheat; [5]): 0
